This note sets out measurements from ChEMBL document CHEMBL4680227, “Design and synthesis of selective degraders of EGFR mutant” (Eur J Med Chem, 2020).

Format in all cases: cell-based
The target in experiment [1] is E3 ubiquitin-protein ligase Mdm2/Epidermal growth factor receptor (Homo sapiens, UniProt Q00987+P00533). Briefly: Protac activity at MDM2/EGFR in human A431 cells assessed as EGFR degradation by Western blot analysis. The settings on record: a-431. (Immunoblotting shows a protein as a band on a membrane.)
E3 ubiquitin-protein ligase Mdm2/Epidermal growth factor receptor (Homo sapiens, UniProt Q00987+P00533), sequence (Q00987 whole entry): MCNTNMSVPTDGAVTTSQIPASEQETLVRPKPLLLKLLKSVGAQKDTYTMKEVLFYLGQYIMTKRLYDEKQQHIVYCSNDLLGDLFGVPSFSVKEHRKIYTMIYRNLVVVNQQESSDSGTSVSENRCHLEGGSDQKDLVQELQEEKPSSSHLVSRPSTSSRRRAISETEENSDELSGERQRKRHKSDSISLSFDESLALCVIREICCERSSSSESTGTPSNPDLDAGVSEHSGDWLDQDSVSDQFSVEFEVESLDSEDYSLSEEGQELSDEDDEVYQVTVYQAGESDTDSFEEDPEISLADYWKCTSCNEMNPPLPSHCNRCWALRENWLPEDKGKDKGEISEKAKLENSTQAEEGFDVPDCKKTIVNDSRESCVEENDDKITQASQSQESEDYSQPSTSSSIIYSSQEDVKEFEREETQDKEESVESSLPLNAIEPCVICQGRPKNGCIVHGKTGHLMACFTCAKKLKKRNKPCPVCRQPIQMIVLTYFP
E3 ubiquitin-protein ligase Mdm2/Epidermal growth factor receptor (Homo sapiens, UniProt Q00987+P00533), sequence (P00533 whole entry): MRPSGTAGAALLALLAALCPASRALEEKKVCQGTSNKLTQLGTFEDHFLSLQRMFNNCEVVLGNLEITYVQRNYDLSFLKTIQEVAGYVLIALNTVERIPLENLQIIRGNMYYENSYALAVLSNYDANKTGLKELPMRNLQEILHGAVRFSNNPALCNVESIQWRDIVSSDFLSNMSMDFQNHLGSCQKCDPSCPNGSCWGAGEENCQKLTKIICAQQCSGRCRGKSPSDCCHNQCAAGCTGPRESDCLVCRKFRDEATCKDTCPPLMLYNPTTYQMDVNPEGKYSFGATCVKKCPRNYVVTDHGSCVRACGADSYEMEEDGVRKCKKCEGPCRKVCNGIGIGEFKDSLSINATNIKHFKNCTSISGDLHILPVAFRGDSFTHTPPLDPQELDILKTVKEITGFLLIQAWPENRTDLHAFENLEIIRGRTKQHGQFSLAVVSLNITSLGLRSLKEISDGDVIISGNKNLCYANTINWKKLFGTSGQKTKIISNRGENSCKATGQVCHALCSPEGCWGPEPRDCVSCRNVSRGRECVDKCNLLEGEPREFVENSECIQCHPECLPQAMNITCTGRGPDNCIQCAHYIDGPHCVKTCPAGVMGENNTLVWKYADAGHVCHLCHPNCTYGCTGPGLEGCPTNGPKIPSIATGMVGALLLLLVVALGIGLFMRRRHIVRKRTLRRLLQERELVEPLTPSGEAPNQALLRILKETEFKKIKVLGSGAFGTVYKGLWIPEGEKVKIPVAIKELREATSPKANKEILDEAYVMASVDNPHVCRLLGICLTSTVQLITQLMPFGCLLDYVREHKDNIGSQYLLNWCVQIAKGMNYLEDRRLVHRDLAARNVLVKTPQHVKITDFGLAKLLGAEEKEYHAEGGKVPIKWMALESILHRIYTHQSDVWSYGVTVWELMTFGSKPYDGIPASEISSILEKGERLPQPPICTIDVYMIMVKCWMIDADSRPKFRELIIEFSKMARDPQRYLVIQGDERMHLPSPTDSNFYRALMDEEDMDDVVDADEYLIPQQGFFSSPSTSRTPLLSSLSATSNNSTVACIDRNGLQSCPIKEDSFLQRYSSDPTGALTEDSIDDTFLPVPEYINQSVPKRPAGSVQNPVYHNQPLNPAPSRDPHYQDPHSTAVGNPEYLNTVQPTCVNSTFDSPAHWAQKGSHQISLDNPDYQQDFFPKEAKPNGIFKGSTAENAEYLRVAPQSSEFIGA
Experiment [2] has as its target E3 ubiquitin-protein ligase Mdm2/Epidermal growth factor receptor (Homo sapiens, UniProt Q00987+P00533, T790M/L858M). Put plainly: (§1) Protac activity at MDM2/EGFR L858R/T790M mutant in human NCI-H1975 cells assessed as EGFR degradation by Western blot analysis.
Experiment [3] concerns the target von Hippel-Lindau disease tumor suppressor/Epidermal growth factor receptor (Homo sapiens, UniProt P00533+P40337, T790M/L858R). Briefly: Protac activity at VHL/EGFR L858R/T790M mutant in human NCI-H1975 cells assessed as EGFR degradation by Western blot analysis.
For experiment [4], the target named is von Hippel-Lindau disease tumor suppressor/Epidermal growth factor receptor (Homo sapiens, UniProt P00533+P40337). Briefly: Protac activity at VHL/EGFR in human A431 cells assessed as EGFR degradation by Western blot analysis. To be noted: a-431.
von Hippel-Lindau disease tumor suppressor/Epidermal growth factor receptor (Homo sapiens, UniProt P00533+P40337), sequence (P00533 whole entry): as above
von Hippel-Lindau disease tumor suppressor/Epidermal growth factor receptor (Homo sapiens, UniProt P00533+P40337), sequence (P40337 whole entry): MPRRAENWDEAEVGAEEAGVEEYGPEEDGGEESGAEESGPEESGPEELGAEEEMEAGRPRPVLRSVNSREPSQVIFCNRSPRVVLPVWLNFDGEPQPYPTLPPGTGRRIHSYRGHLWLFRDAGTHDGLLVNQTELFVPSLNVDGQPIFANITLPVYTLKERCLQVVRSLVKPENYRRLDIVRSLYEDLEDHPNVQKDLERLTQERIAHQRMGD
The test system of experiment [5] is E3 ubiquitin-protein ligase Mdm2/Epidermal growth factor receptor (Homo sapiens), Q00987+P00533 [T790M,L858M]. The experiment is described as §1.

E3 ubiquitin-protein ligase Mdm2/Epidermal growth factor receptor (Homo sapiens, UniProt Q00987+P00533, T790M/L858M), sequence (P00533 whole entry, looked up, stated change not applied): as the sequence (P00533 whole entry) above
E3 ubiquitin-protein ligase Mdm2/Epidermal growth factor receptor (Homo sapiens, UniProt Q00987+P00533, T790M/L858M), sequence (Q00987 whole entry, looked up, stated change not applied): as the sequence (Q00987 whole entry) above

As for `C=CC(=O)Nc1cccc(-n2c(=O)cc(C)c3cnc(Nc4ccc(N5CCN(C(=O)CCCCCNC(=O)c6ccc(NC(=O)[C@@H]7N[C@@H](CC(C)(C)C)[C@](C#N)(c8ccc(Cl)cc8F)[C@H]7c7cccc(Cl)c7F)c(OC)c6)CC5)cc4OC)nc32)c1`, the DC50 (as a rule, the midpoint of the concentration-degradation curve) in experiment [1] is more than 2000 nM; in experiment [2], 77 nM.

Turning to `C=CC(=O)Nc1cccc(-n2c(=O)cc(C)c3cnc(Nc4ccc(N5CCN(CCCCCCCC(=O)N[C@H](C(=O)N6C[C@H](O)C[C@H]6C(=O)NCc6ccc(-c7scnc7C)cc6)C(C)(C)C)CC5)cc4OC)nc32)c1`, the DC50 in experiment [3] is 466 nM; in experiment [4], more than 2000 nM.

On to `C=CC(=O)Nc1cccc(-n2c(=O)cc(C)c3cnc(Nc4ccc(N5CCN(CCCCCCCCCCCCNC(=O)c6ccc(NC(=O)[C@@H]7N[C@@H](CC(C)(C)C)[C@](C#N)(c8ccc(Cl)cc8F)[C@H]7c7cccc(Cl)c7F)c(OC)c6)CC5)cc4OC)nc32)c1`, for which the DC50 in experiment [1] was more than 2000 nM.

`C=CC(=O)Nc1cccc(-n2c(=O)cc(C)c3cnc(Nc4ccc(N5CCN(C(=O)CCCCCCCCCCCNC(=O)c6ccc(NC(=O)[C@@H]7N[C@@H](CC(C)(C)C)[C@](C#N)(c8ccc(Cl)cc8F)[C@H]7c7cccc(Cl)c7F)c(OC)c6)CC5)cc4OC)nc32)c1`: the DC50 was more than 2000 nM in experiment [1] and 264 nM in experiment [2]. For the same molecule, the Activity entry in experiment [5] was “Dose-dependent effect”.

Regarding `C=CC(=O)Nc1cccc(-n2c(=O)cc(C)c3cnc(Nc4ccc(N5CCN(C(=O)CCCCC(=O)N[C@H](C(=O)N6C[C@H](O)C[C@H]6C(=O)NCc6ccc(-c7scnc7C)cc6)C(C)(C)C)CC5)cc4OC)nc32)c1`, the DC50 in experiment [4] is more than 2000 nM.

In the case of `C=CC(=O)Nc1cccc(-n2c(=O)cc(C)c3cnc(Nc4ccc(N5CCN(C(=O)CCCCCCCNC(=O)c6ccc(NC(=O)[C@@H]7N[C@@H](CC(C)(C)C)[C@](C#N)(c8ccc(Cl)cc8F)[C@H]7c7cccc(Cl)c7F)c(OC)c6)CC5)cc4OC)nc32)c1`, the DC50 in experiment [1] is more than 2000 nM; in experiment [2], 253 nM.

Consider `C=CC(=O)Nc1cccc(-n2c(=O)cc(C)c3cnc(Nc4ccc(N5CCN(C(=O)CCCCCCC(=O)N[C@H](C(=O)N6C[C@H](O)C[C@H]6C(=O)NCc6ccc(-c7scnc7C)cc6)C(C)(C)C)CC5)cc4OC)nc32)c1`, for which the DC50 is 235 nM in experiment [3] and more than 2000 nM in experiment [4].

On to `C=CC(=O)Nc1cccc(-n2c(=O)cc(C)c3cnc(Nc4ccc(N5CCN(CCCCCCCCCC(=O)N[C@H](C(=O)N6C[C@H](O)C[C@H]6C(=O)NCc6ccc(-c7scnc7C)cc6)C(C)(C)C)CC5)cc4OC)nc32)c1`, for which the DC50 in experiment [3] was 132 nM; in experiment [4] it was more than 2000 nM.
